Assay results: patent publication US20080261821A1, “Mechanism-Based Crosslinkers” (THE REGENTS OF TE UNIVERSITY OF CALIFORNIA, priority 2004, published 2008)
The star is where a group is joined. Biotin = O=C1N[C@H]2[C@H](CS[C@H]2CCCCC(=O)*)N1; Ahx = NCCCCCC(=O)O

How the values were obtained:
AKT kinase = target: T1, AKT kinase (Homo sapiens, UniProt P31749); experiment: Kinase cell lysate crosslinking (avidin-agarose pull-down, anti-AKT blot); type: biochemical; details: 100 ng AKT kinase, 2 μg HeLa cell lysate; for anti-AKT signal after avidin-agarose pull-down of the biotinylated substrate: 1 μM substrate, 100 μM crosslinker 2, 90 minutes
T1 construct: host or cells: added to HeLa cell lysate
Procedure: Kinase cell lysate crosslinking details: 1 μM of Akt substrate (Biotin-PEG-RPRTSCF-OH) and 100 ng of AKT kinase was added to 2 μg of HeLa cell lysate. 100 μM of the crosslinker 2 was added to cell lysate and the reaction was allowed to proceed for 90 minutes. The lysate were poured over avidin-agarose beads and the beads were washed with wash buffer. The bound protein was eluted from the agarose beads with loading buffer and then subjected to SDS-PAGE. The gel was transferred to nitrocellulose and probed with anti-AKT. […] As a control, the non-cysteine containing AKT substrate (Biotin-PEG-RPRTSSF-OH) was used in the crosslinking reaction described above. No signal was observed.

His 6-tagged human Akt1 = target: T2, His 6-tagged human Akt1 (Homo sapiens, UniProt P31749); experiment: Crosslinking reactions with AKT1 (SDS-PAGE, streptavidin-HRP blot); type: biochemical; details: for crosslinking of peptide to AKT1 (formation of the peptide-AKT1 complex): peptide incubated with AKT1 in the presence of dialdehyde crosslinker 2, FIG. 2A
T2 construct: purchased Calbiochem
Procedure: His 6-tagged human Akt1 (10 ng), 1 μM peptide 3 or 4, and 20 µM crosslinker 2 were incubated in 30 μL of 25 mM HEPES (pH=7.5), 150 mM NaCl, 2 mM MgCl2, 20 μM BME for 20 min at rt. After 20 min, 6 μL of 6× loading buffer was added to quench the reactions. The sample mixtures (10 μL) were resolved by 8-16% SDS-PAGE, transferred to nitrocellulose, and the membrane was probed with streptavidin-HRP.
To evaluate dialdehyde 2 as a mechanism-based crosslinker, a set of peptide substrate derivatives with and without an engineered cysteine (biotin-ZRPRTSSF-OH 3, fluorescein-ZZRPRTSSF-OH 4, biotin-ZRPRTSCF-OH 5 and fluorescein-ZZRPRTSCF—OH 6) were incubated with the kinase, AKT1 (Alessi et al., FEBS Lett. 399: 333-338 (1996)). […] As expected, the peptide-AKT1 covalent complex runs at a slightly higher molecular weight than unmodified AKT1 on SDS-PAGE.

T1 sequence (P31749 whole entry): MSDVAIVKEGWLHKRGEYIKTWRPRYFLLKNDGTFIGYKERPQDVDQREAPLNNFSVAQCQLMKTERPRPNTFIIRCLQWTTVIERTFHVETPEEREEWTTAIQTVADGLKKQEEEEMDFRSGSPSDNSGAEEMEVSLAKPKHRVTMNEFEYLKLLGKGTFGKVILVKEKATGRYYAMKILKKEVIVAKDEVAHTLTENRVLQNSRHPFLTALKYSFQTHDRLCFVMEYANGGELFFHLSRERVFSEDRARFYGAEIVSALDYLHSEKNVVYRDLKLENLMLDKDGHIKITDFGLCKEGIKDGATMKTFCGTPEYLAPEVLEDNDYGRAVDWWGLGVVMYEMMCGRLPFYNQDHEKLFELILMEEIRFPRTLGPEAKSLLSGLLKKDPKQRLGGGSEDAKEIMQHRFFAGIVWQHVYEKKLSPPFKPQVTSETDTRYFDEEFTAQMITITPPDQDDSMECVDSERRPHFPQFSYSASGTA
T2 sequence (P31749 whole entry): as above

Row | Molecule | anti-AKT signal after avidin-agarose pull-down of the biotinylated substrate (AKT kinase) | crosslinking of peptide to AKT1 (formation of the peptide-AKT1 complex) (His 6-tagged human Akt1) | other results
1 | Nc1ncnc2c1ncn2C1OC(COC(=O)c2ccc(C=O)c(C=O)c2)C(O)C1O (stereo not shown) [dialdehyde 2] |  |  | anti-AKT signal after crosslinking in cell lysate by the crosslinker (AKT kinase; 100 μM crosslinker 2 with 1 μM Biotin-PEG-RPRTSCF-OH, 90 minutes): positive signal; crosslinking of AKT1 and peptide by the crosslinker (formation of the peptide-AKT1 complex) (His 6-tagged human Akt1; dialdehyde 2 incubated with cysteine-containing peptide 5 and AKT1, FIG. 2A lane 2): rapid formation of the peptide-AKT1 complex was observed
2 | Biotin-PEG-RPRTSCF-OH | positive signal |  | 
3 | Biotin-PEG-RPRTSSF-OH [reference compound] | No signal |  | 
4 | Fluorescein-Ahx-Ahx-Arg-Pro-Arg-Thr-Ser-Cys-Phe-OH ({fluorescein-Ahx-Ahx}-RPRTSCF-OH) [peptide 6] |  | identical results | 
5 | {Biotin-Ahx}-RPRTSCF-OH [peptide 5] |  | rapid formation of the peptide-AKT1 complex was observed | 
6 | {Biotin-Ahx}-RPRTSSF-OH [peptide 3, reference compound] |  | no detectable crosslinking | 
